Consider seven compounds from US7670604B2, “Vimentin directed diagnostics and therapeutics for multidrug resistant neoplastic disease” (Aurelium Biopharma, Inc., priority 2002, dated 2010).

Entries after “also recorded” stand apart in the source; their conditions may differ.

One data set deals with MDA cells. Nature of the data set: Induction of surface exposure of vimentin by drugs, intact cell radioimmunoassay. Conditions: 1 or 10 μM taxol, 1 or 10 μM doxorubicin, 0.1 or 1 μM mitoxanthrone, 12 to 16 hours. It counts as cell-based.
The conditions of data set [1]: Rowland et al. 1993; cited from earlier work.
A further data set relates to E3 target cells. Conditions: Pietersz et al. 1988; cited from earlier work.
Data set [2] has as its system antigen-positive E3 cell line. Conditions: Krauer et al. 1992, read-out: IC50 (cytotoxicities); cited from earlier work.
The test system of another data set is lysosomal hydrolases. Conditions: cited from earlier work.
Data set [3] has as its system hematological tumor cells. Put plainly: Vimentin vaccination of mice injected with hematological tumor cells. Conditions: mice vaccinated prior to injection of the tumor cells. The data set is classed as in vivo.

The IC50 is the point on the concentration scale where inhibition reaches its midpoint.

On to `COc1cccc2c1C(=O)c1c(O)c3c(c(O)c1C2=O)C[C@@](O)(C(=O)CO)C[C@@H]3O[C@H]1C[C@H](N)[C@H](O)[C@H](C)O1` [doxorubicin], for which the “induction of surface exposure of vimentin” value (“induction” below) in the data set with MDA cells is given as “slight induction”.

`CC(=O)[C@]1(O)Cc2c(O)c3c(c(O)c2[C@@H](O[C@H]2C[C@H](N)[C@H](O)[C@H](C)O2)C1)C(=O)c1ccccc1C3=O` [Ida, Idarubicin]: in data set [1], the activities was 12 nM. The IC50 in the data set on E3 target cells was 120 nM.

For the compound `O=c1[nH]c(=O)n([C@H]2C[C@H](O)[C@@H](CO)O2)cc1F` [FUDR, 5-fluoro-2′-deoxyuridine], the IC50 in data set [2] was 0.4 nM.

Take `O=C1c2c(O)ccc(O)c2C(=O)c2c(NCCNCCO)ccc(NCCNCCO)c21` [mitoxanthrone]: the “induction” value in the data set with MDA cells was “slight induction; also recorded: most significant effect”.

Turning to `CC(=O)O[C@H]1C(=O)[C@@]2(C)[C@H]([C@H](OC(=O)c3ccccc3)[C@]3(O)C[C@H](OC(=O)[C@H](O)[C@@H](NC(=O)c4ccccc4)c4ccccc4)C(C)=C1C3(C)C)[C@]1(OC(C)=O)CO[C@@H]1C[C@@H]2O` [taxol], in the data set with MDA cells, the “induction” value is recorded as “slight induction”.

`COc1cccc2c1C(=O)c1c(O)c3c(c(O)c1C2=O)CC(O)(C(C)=O)CC3OC1CC(NC(=O)C(CC(C)C)NC(=O)C(C)N)C(O)C(C)O1` (stereo not drawn) [Ala-Leu-Dau derivative]: the “time for conversion back to the free drug” value in the data set on lysosomal hydrolases was 2 h.

Consider “vimentin: purified full length murine vimentin protein used as vaccine antigen, may be given with adjuvant”, for which the “tumor size versus mice not vaccinated” value in data set [3] is given as “smaller”.
